Test results published in patent US12038430B2, “Methods for high-content drug screening” (The Regents of the University of California, priority 2018, dated 2024).

Test system: human wildtype CFTR
Test: Iodide transport / YFP quenching CFTR activation assay in FRT cells on micropillar array
Format: cell-based
Conditions: 10 μM forskolin in alginate hydrogel, 10 min contact, FRT cells expressing human CFTR and YFP, versus neighboring area without forskolin
Description: FRT cells stably expressing human wildtype CFTR and yellow fluorescent protein YFP-H148/I152L were cultured on polyester transwell filters until they formed a tight monolayer (electrical resistance >3 kOhm·cm^2), as previously described in the art. The cell culture medium was then replaced with a viscous solution consisting of 2% methylcellulose (about 41,000 daltons, Sigma-Aldrich) in PBS. The cell layer was contacted with a 10×10 micropillar array for 10 min, and then the viscous solution was rinsed. For transport measurement, an iodide-containing solution (PBS with 120 mM chloride was replaced by iodide) was added manually on top of the cell layer. YFP fluorescence of the entire cell culture area was monitored for 5 min at 10 Hz using a 2× magnification lens (CFI Plan Apo Lambda 2X, Nikon, Melville, NY) with EMCCD camera detector (C9100, Hamamatsu). YFP fluorescence is reduced as the added extracellular iodide is transported into cell cytoplasm through activated CFTR. The time course of fluorescence for each of the 100 locations, each integrated over the 100-μm diameter circular cell area overlying the corresponding micropillar well, was determined using ImageJ. […]
CFTR function was determined from the kinetics of YFP fluorescence quenching following addition of an iodide-containing solution on the apical surface of the cell monolayer. […]

C=C[C@@]1(C)CC(=O)[C@]2(O)[C@@]3(C)[C@@H](O)CCC(C)(C)[C@@H]3[C@H](O)[C@H](OC(C)=O)[C@@]2(C)O1 [Forskolin, forskolin]
increase of initial curve slope of YFP fluorescence quenching (CFTR activation): more than 14 fold
